# Reference: patent US20240254118A1, “PRMT5 INHIBITORS AND USES THEREOF” (Gilead Sciences, Inc., priority 2022, published 2024)
# pEC50: −log10 of the molar value.
# Tests used:
# [1] = tested on: SDMA signal (PRMT5 inhibition) in HCT116 MTAP-deleted cells; experiment: Symmetric di-methyl arginine image-based high content screen assay (SDMA assay), HCT116 MTAP-deleted; assay type: cell-based; conditions: SDMA assay; for pEC50: Homo sapiens, HCT-116, 72 h, 3 days of treatment, cell line not given, taken as HCT116 MTAP-deleted, read-out: EC50 (SDMA assay)
# Description: Symmetric di-methyl arginine image-based high content screen assay (SDMA assay) was performed in HCT116 WT and HCT116 MTAP-deleted cell lines to measure Symmetric Di-methyl Arginine (SDMA) signal reduction after selective PRMT5 inhibition in the MTAP-deleted cells.
# Briefly, the same compound plates were generated as mentioned in the previous section of Cell viability assay on Day −1.
# On Day 3, the cells were fixed by adding 45 μl of 8% neutralized formalin solution to each well using EL460 liquid dispenser 5 μl cassette and the cells were incubated for 30 minutes at room temperature. The formalin solution was washed off with […] phosphate buffered saline (dPBS), the 0.1% Triton X-100 solution in dPBS was used to permeabilize the cells for 15 minutes at room temperature. The triton solution was aspirated, 50 μl of Odyssey Blocking buffer+0.05% Tween20 was added and the plate was incubated at room temperature for 30 minutes.
# The blocking solution was removed, a 20 μl of SDMA antibody (Cell Signaling Technology, Cat no. 13222) diluted 1:500 in Odyssey Blocking buffer+0.05% Tween20 was added and the plate was incubated at 4° C. overnight. Next day, the primary SDME antibody solution was washed from each well three times with 0.05% Tween20 in dPBS (PBST).
# A 30 μl of the secondary antibody, a Goat anti-Rabbit Alexa Fluor Plus 488 (Invitrogen, Cat no. PIA32731) was diluted 1:500 in Odyssey Blocking buffer+0.05% Tween20 and the plate was incubated for 1.5 hours in dark at room temperature. The secondary antibody solution was removed, 30 μl of 5 mg/ml DAPI solution diluted 1:2000 in dPBS was added and the plate was incubated for 30 minutes in dark at room temperature. The DAPI solution was aspirated and the wells were washed six times with dPBS.
# The SDMA signal and DAPI signal per cell were counted using a Cellomics CX7 LZR instrument reading under 488 and 405 nm laser, respectively. The SDMA signal was quantified by mean average intensity per cell from Alexa Fluor Plus 488 after the cell was defined with DAPI.
# [2] = tested on: HCT116 MTAP-deleted cells; experiment: Cell viability assay (CellTiter-Glo, 7 days), HCT116 MTAP-deleted; conditions: Homo sapiens, HCT-116, 168 h
# [3] = taken as HCT116 WT versus MTAP-deleted
# [4] = taken as HCT116 WT vs MTAP-deleted
smiles,measurement,setting,value
"Cn1ncc2c(N)nc3ccc(C(=O)N(Cc4ccc(C(F)(F)F)cn4)N4CCOC4=O)cc3c21 [Example 133, 4-amino-1-methyl-N-(2-oxooxazolidin-3-yl)-N-((5-(trifluoromethyl)pyridin-2-yl)methyl)-1H-pyrazolo[4,3-c]quinoline-8-carboxamide]",pEC50,[1],> 9.00
same,EC50 selectivity (SDMA assay),[1]; [3],92
same,CC50,[2],< 100 nM
"CC(=O)N(C)N(Cc1ccc(F)c(F)c1F)C(=O)c1ccc2nc(N)c3cnn(C)c3c2c1 [Example 48, N′-acetyl-4-amino-N′,1-dimethyl-N-[(2,3,4-trifluorophenyl)methyl]pyrazolo[4,3-c]quinoline-8-carbohydrazide]",pEC50,[1],8.30 to 9.00
same,EC50 selectivity (SDMA assay),[1]; [3],326
same,CC50,[2],< 100 nM
"CC(=O)N(C)N(Cc1cc2cccc(C(F)(F)F)c2s1)C(=O)c1ccc2nc(N)c3cnn(C)c3c2c1 [Example 419, N′-acetyl-4-amino-N′,1-dimethyl-N-((7-(trifluoromethyl)benzo[b]thiophen-2-yl)methyl)-1H-pyrazolo[4,3-c]quinoline-8-carbohydrazide]",pEC50,[1],8.30 to 9.00
same,EC50 selectivity (SDMA assay),[1]; [4],118
same,CC50,[2],< 100 nM
"COC12CC(C(=O)N(C)N(Cc3ccc(C(F)(F)F)cn3)C(=O)c3ccc4nc(N)c5cnn(C)c5c4c3)(C1)C2 [Example 187, 4-amino-N′-(3-methoxybicyclo[1.1.1]pentane-1-carbonyl)-N′,1-dimethyl-N-[[5-(trifluoromethyl)-2-pyridyl]methyl]pyrazolo[4,3-c]quinoline-8-carbohydrazide]",pEC50,[1],8.30 to 9.00
same,EC50 selectivity (SDMA assay),[1]; [3],50
same,CC50,[2],< 100 nM
"CN(C(=O)C1CC1)N(Cc1ccc(C(F)(F)F)cn1)C(=O)c1ccc2nc(N)c3cnn(C)c3c2c1 [Example 111, 4-amino-N′-(cyclopropanecarbonyl)-N′,1-dimethyl-N-[[5-(trifluoromethyl)-2-pyridyl]methyl]pyrazolo[4,3-c]quinoline-8-carbohydrazide]",pEC50,[1],> 9.00
same,EC50 selectivity (SDMA assay),[1]; [3],129
same,CC50,[2],< 100 nM
"Cn1ncc2c(N)nc3ccc(C(=O)N(Cc4ccc(C(F)(F)F)cn4)n4ccc5cccnc54)cc3c21 [Example 295, 4-amino-1-methyl-N-(1H-pyrrolo[2,3-b]pyridin-1-yl)-N-((5-(trifluoromethyl)pyridin-2-yl)methyl)-1H-pyrazolo[4,3-c]quinoline-8-carboxamide]",pEC50,[1],> 9.00
same,EC50 selectivity (SDMA assay),[1]; [3],18
same,CC50,[2],< 100 nM
"CN(C(=O)CC1CC1)N(Cc1ccc(C(F)(F)F)cn1)C(=O)c1ccc2nc(N)c3cnn(C)c3c2c1 [Example 399, 4-amino-N′-(2-cyclopropylacetyl)-N′,1-dimethyl-N-[[5-(trifluoromethyl)-2-pyridyl]methyl]pyrazolo[4,3-c]quinoline-8-carbohydrazide]",pEC50,[1],8.30 to 9.00
same,EC50 selectivity (SDMA assay),[1]; [4],358
same,CC50,[2],< 100 nM
"Cn1ncc2c(N)nc3ccc(C(=O)N(Cc4ccc(C(F)(F)F)cn4)N4C(=O)O[C@H]5CC[C@H]54)cc3c21 [Example 362, 4-amino-1-methyl-N-((1S,5R)-3-oxo-2-oxa-4-azabicyclo[3.2.0]heptan-4-yl)-N-((5-(trifluoromethyl)pyridin-2-yl)methyl)-1H-pyrazolo[4,3-c]quinoline-8-carboxamide]",pEC50,[1],8.30 to 9.00
same,EC50 selectivity (SDMA assay),[1]; [3],468
same,CC50,[2],< 100 nM
"CC(=O)N([C@H]1CCOC1)N(Cc1ccc(C(F)(F)F)cn1)C(=O)c1ccc2nc(N)c3cnn(C)c3c2c1 [Example 207, N′-acetyl-4-amino-1-methyl-N′-[(3S)-tetrahydrofuran-3-yl]-N-[[5-(trifluoromethyl)-2-pyridyl]methyl]pyrazolo[4,3-c]quinoline-8-carbohydrazide]",pEC50,[1],8.30 to 9.00
same,EC50 selectivity (SDMA assay),[1]; [3],364
same,CC50,[2],100 to 1000 nM
"C[C@@H]1CN(N(Cc2ccc(C(F)(F)F)cn2)C(=O)c2ccc3nc(N)c4cnn(C)c4c3c2)C[C@H](C)O1 [Example 310, 4-amino-N-((2S,6R)-2,6-dimethylmorpholino)-1-methyl-N-((5-(trifluoromethyl)pyridin-2-yl)methyl)-1H-pyrazolo[4,3-c]quinoline-8-carboxamide]",pEC50,[1],> 9.00
same,EC50 selectivity (SDMA assay),[1]; [3],132
same,CC50,[2],< 100 nM
"Cn1ncc2c(N)nc3ccc(C(=O)N(Cc4cn5cc(Cl)ccc5n4)N4CCCC4=O)cc3c21 [Example 123, 4-Amino-N-[(6-chloroimidazo[1,2-a]pyridin-2-yl)methyl]-1-methyl-N-(2-oxopyrrolidin-1-yl)pyrazolo[4,3-c]quinoline-8-carboxamide]",pEC50,[1],> 9.00
same,EC50 selectivity (SDMA assay),[1]; [3],39
same,CC50,[2],< 100 nM
"C[C@@H]1CN(N(Cc2ccc(C(F)(F)F)cn2)C(=O)c2cc3c(cc2F)nc(N)c2cnn(C)c23)C[C@H](C)O1 [Example 293, 4-amino-N-((2S,6R)-2,6-dimethylmorpholino)-7-fluoro-1-methyl-N-((5-(trifluoromethyl)pyridin-2-yl)methyl)-1H-pyrazolo[4,3-c]quinoline-8-carboxamide]",pEC50,[1],> 9.00
same,EC50 selectivity (SDMA assay),[1]; [3],9
same,CC50,[2],< 100 nM
"CCN(C(C)=O)N(Cc1ccc(OC(F)F)cc1F)C(=O)c1cc2c(cc1F)nc(N)c1cnn(C)c12 [Example 154, N′-acetyl-4-amino-N-(4-(difluoromethoxy)-2-fluorobenzyl)-N′-ethyl-7-fluoro-1-methyl-1H-pyrazolo[4,3-c]quinoline-8-carbohydrazide]",pEC50,[1],> 9.00
same,EC50 selectivity (SDMA assay),[1]; [3],45
same,CC50,[2],< 100 nM
"CC(=O)N(C)N(Cc1ccc(C#CC2CCCO2)cc1F)C(=O)c1ccc2nc(N)c3cnn(C)c3c2c1 (stereo not drawn) [Example 387, N′-acetyl-4-amino-N-[[2-fluoro-4-(2-tetrahydrofuran-2-ylethynyl)phenyl]methyl]-N′,1-dimethyl-pyrazolo[4,3-c]quinoline-8-carbohydrazide]",pEC50,[1],8.30 to 9.00
same,EC50 selectivity (SDMA assay),[1]; [3],44
same,CC50,[2],< 100 nM
"Cn1c(CN(C(=O)c2ccc3nc(N)c4ccccc4c3c2)N2CCCC2=O)nc2ccccc21 [Example 79, 6-Amino-N-[(1-methylbenzimidazol-2-yl)methyl]-N-(2-oxopyrrolidin-1-yl) phenanthridine-2-carboxamide]",pEC50,[1],8.30 to 9.00
same,EC50 selectivity (SDMA assay),[1]; [3],406
same,CC50,[2],100 to 1000 nM
"Cn1ncc2c(N)nc3ccc(C(=O)N(Cc4ccc(C(F)(F)F)cn4)N4CCCC4=O)cc3c21 [Example 26, 4-amino-1-methyl-N-(2-oxopyrrolidin-1-yl)-N-[[5-(trifluoromethyl)-2-pyridyl]methyl]pyrazolo[4,3-c]quinoline-8-carboxamide]",pEC50,[1],8.30 to 9.00
same,EC50 selectivity (SDMA assay),[1]; [3],85
same,CC50,[2],< 100 nM
"CC(=O)N(C)N(Cc1nc2cc(C(F)(F)F)ccc2n1C)C(=O)c1ccc2nc(N)c3cnn(C)c3c2c1 [Example 423, N′-acetyl-4-amino-N′,1-dimethyl-N-((1-methyl-5-(trifluoromethyl)-1H-benzo[d]imidazol-2-yl)methyl)-1H-pyrazolo[4,3-c]quinoline-8-carbohydrazide]",pEC50,[1],8.30 to 9.00
same,EC50 selectivity (SDMA assay),[1]; [4],149
same,CC50,[2],< 100 nM
"CC(=O)N(C)N(Cc1ccc(Cl)cc1C#N)C(=O)c1ccc2nc(N)c3cnn(C)c3c2c1 [Example 457, N′-acetyl-4-amino-N-(4-chloro-2-cyanobenzyl)-N′,1-dimethyl-1H-pyrazolo[4,3-c]quinoline-8-carbohydrazide]",pEC50,[1],> 9.00
same,EC50 selectivity (SDMA assay),[1]; [4],90
same,CC50,[2],< 100 nM
